According to paper PMC7970304, “The Effects of Apelin and Elabela Ligands on Apelin Receptor Distinct Signaling Profiles” (Frontiers in Pharmacology, 2021):

How the values were obtained:
Type in all cases: cell-based
[1] = tested on: APJ–GRK5 interaction; assay: BRET recruitment of GRK5 to APJ; settings: for log (τ/KA) / Δlog (τ/KA): GRK5; for log (τ/KA): Black–Leff operational model; for Δlog (τ/KA): relative to Apelin-13; for Bias factor / Log (Bias): GRK5 over Ca2+, reference Apelin-13; for Log (Bias): footnote a = statistically insignificant
Protocol: (§1) To detect the potencies of different peptide ligands for APJ in living cells, real-time kinetic bioluminescence resonance energy transfer (BRET) assays were carried out as follows. HEK293 cells were grown to 80–90% confluence in 24-well plates and transiently transfected with various Rluc-, EYFP-, or Venus-tagged constructs ([Chen et al., 2014]; [Liu et al., 2016]). Approximately 36 h after transfection, the long-acting luciferase substrate EnduRen (E6481, Promega, Beijing Biotech Co., Ltd.) was added to each well at a final concentration of 60 μM and cells were incubated for 2 h at 37°C in a 5% CO2 incubator. BRET experiments were carried out using a Mithras LB941 plate reader (Berthold Technologies, Bad Wildbad, Germany) with three filters: a Rluc filter (400–475 nm), a Venus filter (515–575 nm) and an EGFP filter (500–550 nm) ([Liu et al., 2016]; [Ji et al., 2017]). The BRET ratio was calculated as the ratio of the emission at 535 ± 30 nm to that at 485 ± 20 nm. The results are expressed as the mBRET (mBRET = 1,000 × BRET ratio) ([Pfleger et al., 2006a]; [Pfleger et al., 2006b]). We use high glucose as a negative control group.
(§2) HEK293 cells were transiently co-transfected with the designated Rluc and GFP2 or Venus or EYFP-labeled constructs. Twenty-four hours after transfection, the cells were harvested in phenol red free medium containing 5% FCS in HEPES buffer and seeded in 96 well white microplate coated with poly-D-lysine. After 24 h, cells were washed twice in PBS and re-suspended in PBS containing 0.5 mM MgCl2 and 0.1% glucose. Coelenterazine h substrate was added at a final concentration of 5 μM in the total volume of 50 μL/well. Kinetic-response and dose-response curve of the recruitment of GRKs or β-arrestin 1 and β-arrestin 2 or AP2 to the APJ by six peptides measured by BRET. […] The BRET signals between receptor and GRKs/β-arrestin1 and 2/AP2 were recorded at 10 min (GRK2/5) or 15 min (β-arrestin1 and) or 30 min (AP2) after agonist stimulation. We use high glucose as a control group. BRET assays were performed as described previously ([Xue et al., 2018]). […] This signal is defined as the ligand induced BRET ratio.
(§3) The concentration-response data for the ligands in various assays were analyzed to determine the biases of the ligands for G protein dependent signaling or β-arrestin dependent signaling, according to a previously published method ([Kenakin et al., 2012]; [Hager et al., 2016]; [Hothersall et al., 2017]). Briefly, the concentration-response data for each ligand were fitted to the Black–Leff operation model to obtain the values of τ and K A, using the following equation: Response=[A]^nτ^nEm/[A]^nτ^n+([A]KA)^n where [A] is the concentration of the agonist, E m is the maximal response of the system, n is the transducer slope, and K A and τ describe the affinity and efficacy of the agonist, respectively. In the data fitting, the reparametrized form of the equation proposed by [Kenakin et al. (2012)] was used: Response=Em/1+exp{nln[1+exp(β1)/[A]]−nβ2} where β 1 and β 2 are the natural logarithm of K A and τ, respectively, and E m was set to 1. Thus, for each concentration-response curve, a non-linear regression was performed to fit the above equation to give β 1 and β 2 (as well as n). Log (τ/K A) values (“transduction coefficients”) for each ligand vs. each pathway were obtained. […] The ΔΔlog (τ/K A), or Log (Bias), which is the logarithm of the bias factor for a given pathway over a reference pathway (here, intracellular calcium release), was calculated for each ligand as Δlog (τ/K A)–Δlog (τ/K A)Calcium. The 95% confidence interval (CI) was expressed as the mean ± standard error; Log (Bias) values, whose 95% CI crosses 0, were considered statistically insignificant.
(§4) The data were analyzed using GraphPad Prism v5.0. All the data are presented as the mean ± SEM.

[2] = tested on: β-arrestin 1–AP2 interaction induced by APJ; assay: BRET interaction of β-arrestin 1 and β2-adaptin (AP2) induced by APJ; settings: for log (τ/KA) / Δlog (τ/KA): APJ-β-arrestin1-AP2; for log (τ/KA): Black–Leff operational model; for Δlog (τ/KA): relative to Apelin-13; for Bias factor / Log (Bias): APJ-β-arrestin1-AP2 over Ca2+, reference Apelin-13; for Log (Bias): footnote a = statistically insignificant
Protocol: as §1, §2, §3, §4

[3] = tested on: APJ–β-arrestin 2 interaction; assay: BRET recruitment of β-arrestin 2 to APJ; settings: for log (τ/KA): Black–Leff operational model; for Bias factor / Log (Bias): APJ-β-arrestin 2 over Ca2+, reference Apelin-13; for Log (Bias): footnote a = statistically insignificant
Protocol: as §1, §2, §3, §4

[4] = tested on: APJ–β-arrestin 1 interaction; assay: BRET recruitment of β-arrestin 1 to APJ; settings: for log (τ/KA) / Δlog (τ/KA): APJ-β-arrestin1; for log (τ/KA): Black–Leff operational model; for Δlog (τ/KA): relative to Apelin-13; for Bias factor / Log (Bias): APJ-β-arrestin1 over Ca2+, reference Apelin-13
Protocol: as §1, §2, §3, §4

SMILES	log (τ/KA) [1]	Δlog (τ/KA) [1]	Bias factor [1]	Log (Bias) [1]	log (τ/KA) [2]	Δlog (τ/KA) [2]	Bias factor [2]	Log (Bias) [2]	log (τ/KA) ([3]; APJ-β-arrestin 2)	Bias factor [3]	Log (Bias) [3]	log (τ/KA) [4]	Δlog (τ/KA) [4]	Bias factor [4]	Log (Bias) [4]	further results
CSCC[C@H](NC(=O)[C@@H]1CSSC[C@H](NC(=O)[C@H](CC(N)=O)NC(=O)[C@H](Cc2c[nH]cn2)NC(=O)[C@H](CCCCN)NC(=O)[C@H](CCCNC(=N)N)NC(=O)[C@@H](N)CC(C)C)C(=O)N[C@@H](CC(C)C)C(=O)N[C@@H](CCC(N)=O)C(=O)N[C@@H](CCCNC(=N)N)C(=O)N[C@@H](CCCNC(=N)N)C(=O)N1)C(=O)N1CCC[C@H]1C(=O)N[C@@H](CC(C)C)C(=O)N[C@@H](Cc1c[nH]cn1)C(=O)N[C@@H](CO)C(=O)N[C@@H](CCCNC(=N)N)C(=O)N[C@H](C(=O)N1CCC[C@H]1C(=O)N[C@@H](Cc1ccccc1)C(=O)N1CCC[C@H]1C(=O)O)C(C)C [Elabela-21]	−1.9 ± 0.3	0.5 ± 0.4	124.1	2.1 ± 0.5	−1.9 ± 0.1	−0.5 ± 0.2	13.2	1.1 ± 0.3	−2.1 ± 0.1	73.6	1.9 ± 0.2	−1.9 ± 0.1	0.6 ± 0.1	146.2	2.2 ± 0.2	Δlog (τ/KA) ([3]; APJ-β-arrestin 2, relative to Apelin-13): 0.3 ± 0.1
CSCC[C@H](NC(=O)[C@@H](NC(=O)[C@H](CC(C)C)NC(=O)[C@H](CC(N)=O)NC(=O)[C@@H](NC(=O)[C@@H]1CCCN1C(=O)[C@H](CCCNC(=N)N)NC(=O)[C@@H](N)CCC(N)=O)C(C)C)[C@@H](C)O)C(=O)N[C@@H](CCCNC(=N)N)C(=O)N[C@@H](CCCNC(=N)N)C(=O)N[C@@H](CCCCN)C(=O)N[C@@H](CC(C)C)C(=O)N[C@@H](CCCNC(=N)N)C(=O)N[C@@H](CCCCN)C(=O)N[C@@H](Cc1c[nH]cn1)C(=O)N[C@@H](CC(N)=O)C(=O)N[C@H]1CSSC[C@@H](C(=O)N[C@@H](CCSC)C(=O)N2CCC[C@H]2C(=O)N[C@@H](CC(C)C)C(=O)N[C@@H](Cc2c[nH]cn2)C(=O)N[C@@H](CO)C(=O)N[C@@H](CCCNC(=N)N)C(=O)N[C@H](C(=O)N2CCC[C@H]2C(=O)N[C@@H](Cc2ccccc2)C(=O)N2CCC[C@H]2C(=O)O)C(C)C)NC(=O)[C@H](CCCNC(=N)N)NC(=O)[C@H](CCCNC(=N)N)NC(=O)[C@H](CCC(N)=O)NC(=O)[C@H](CC(C)C)NC1=O [Elabela-32]	−0.3 ± 0.3	2.1 ± 0.4	8,921.8	4.0	−0.1 ± 0.1	1.3 ± 0.2	1,580.1	3.2	−0.4 ± 0.1	6,138.2	3.8	−1.0 ± 0.1	1.4 ± 0.1	1978.4	3.3	bias over calcium release ([1]; APJ–GRK5): > 6,000 fold; Log (Bias) ([1]; listed as ELA-32): 4.0 ± 0.5; Log (Bias) ([2]; listed as ELA-32): 3.2 ± 0.3; bias over calcium release ([2]; β-arrestin 1–AP2): > 1,500 fold; Log (Bias) ([3]; listed as ELA-32): 3.8 ± 0.2; bias over calcium release ([3]; APJ–β-arrestin 2): > 6,000 fold; Log (Bias) ([4]; listed as ELA-32): 3.3 ± 0.2; bias over calcium release ([4]; APJ–β-arrestin 1): > 1,500 fold; APJ–β-arrestin 1 BRET signal (in words) ([4]; dose-response, 15 min): significantly higher than those induced by the other peptide ligands
